# According to patent publication US20060160906A1, “Polyamine analogs as therapeutic agents for ocular diseases” (priority 2004, published 2006):
# “Also recorded” adds a separate entry of the source.
# Tested on: retinal function (ERG a- and b-wave amplitudes)
# Experiment: Retinal function assessed by electroretinograms (ERG)
# Assay type: in vivo, C57BL/6 mice
# Experimental: Adult female C57BL/6 mice were given an intravitreous injection of 2, 4, or 20 μg of CGC-11144 in one eye and an injection of vehicle in the fellow eye and after 3 days ERGs were recorded as previously described (Okoye et al., J. Neuosci. 23: 4164-4172 (2003)). ERGs were also performed after daily periocular injections of 0.2 mg of CGC-11144 for 2 weeks. Mice were dark-adapted for a standardized 12-hour period overnight and ERG recordings were performed using the Espion ERG Diagnosys (Diagnosys LLL, Littleton, Mass.). All manipulations were done with dim red light illumination. Beginning the same time each morning, mice were anesthetized by ip injection of 25 μl/g body weight of Avertin (Aldrich, Milwaukee, Wis.) diluted 1:39 in PBS. Corneas were anesthetized with a drop of 0.5% proparacaine hydrochloride (Alcon Labs) and pupils were dilated with 1% tropicamide. Mice were placed on a pad heated to 39° C. and platinum electrodes were placed on each cornea after application of gonioscopic prism solution (Alcon Labs). The reference electrode was placed subcutaneously in the anterior scalp between the eyes, and the ground electrode was inserted into the tail. Electrode impedance was balanced for each eye pair measured. The head of the mouse was placed in a standardized position in a Ganzfeld bowl illuminator that assured equal illumination of the eyes. Simultaneous recordings from both eyes were made for eleven intensity levels of white light ranging from −3.00 to +1.40 log cd-s/m^2. The Espion ERG machine measures the ERG response six times at each flash-intensity and records the average value.
# [1] = intravitreous 2 μg, after 3 days
smiles,measurement,setting,value
CCNCCCCNCCCCNCCCCNCCCCNC/C=C/CNCCCCNCCCCNCCCCNCCCCNCC.Cl.Cl.Cl.Cl.Cl.Cl.Cl.Cl.Cl.Cl [CGC-11144],ERG a- and b-wave amplitudes vs vehicle,daily periocular 200 μg for 14 days,normal ERG a- and b-wave amplitudes; also recorded: no difference in mean a-wave or b-wave amplitudes
same,ERG a-wave amplitudes,[1],only mildly decreased at highest flash intensities
same,ERG b-wave amplitudes,[1],profoundly reduced at all flash intensities
same,ERG amplitudes,"intravitreous 10 μg, after 3 days",striking decrease in ERG amplitudes
same,ERG a- and b-wave amplitudes,"intravitreous 20 μg, after 3 days",dramatically reduced
same,ERG b-wave amplitudes compared to PBS,"intravitreous 2, 4, or 20 μg, after 3 days, p<0.05",significant decrease in b-wave amplitudes
same,ERG a-wave amplitudes compared to PBS,"intravitreous 4 or 20 μg, after 3 days, p<0.05",significant decrease in a-wave amplitudes
